{
  "source": "paper PMC12197678",
  "about": "“Cvill6 and Cvill7: Potent and Selective Peptide Blockers of Kv1.2 Ion Channel Isolated from Mexican Scorpion Centruroides villegasi” (Toxins, 2025)",
  "key": {"hKv1.2": {"biological_target": "T1, hKv1.2 (Homo sapiens, UniProt P16389)", "T1 construct": "host or cells: CHO cells, transient transfection (Lipofectamine 2000)", "T1 sequence (P16389 whole entry)": "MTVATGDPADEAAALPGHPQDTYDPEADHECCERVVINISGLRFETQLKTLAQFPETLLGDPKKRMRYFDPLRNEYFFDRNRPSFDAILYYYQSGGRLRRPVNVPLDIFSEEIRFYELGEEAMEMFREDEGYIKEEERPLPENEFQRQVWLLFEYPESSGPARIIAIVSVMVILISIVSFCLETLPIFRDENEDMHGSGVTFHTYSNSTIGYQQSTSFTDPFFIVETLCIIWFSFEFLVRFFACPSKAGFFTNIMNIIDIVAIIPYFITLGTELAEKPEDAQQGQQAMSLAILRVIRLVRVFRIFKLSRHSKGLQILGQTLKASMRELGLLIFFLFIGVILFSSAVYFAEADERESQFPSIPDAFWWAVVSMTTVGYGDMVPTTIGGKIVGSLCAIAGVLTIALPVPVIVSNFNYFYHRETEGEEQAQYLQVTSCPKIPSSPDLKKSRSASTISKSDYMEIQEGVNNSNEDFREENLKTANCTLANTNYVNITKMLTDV", "experiment": "Whole-cell patch-clamp, hKv1.2 current in transiently transfected CHO cells", "type": "cell-based", "settings": "for inhibition at 0.001 µM: 1 nM", "description": "(§1) For current recordings, Kv1.1, Kv1.2, and Kv1.5 were transiently expressed in CHO cells while for Kv11.1 a stable HEK293 cell line was used. To record Kv1.3 currents human peripheral T lymphocytes were activated with Phytohemagglutinin A (PHA) to boost Kv1.3 expression and Ca^2+-free intracellular solution to prevent the KCa3.1 channel opening. […] Appropriate voltage protocols were applied to record the K^+ currents from voltage-clamped cells in whole-cell configurations. Toxins were freshly dissolved in the bath solution supplemented with 0.1 mg/mL BSA and applied to the patched cells via a gravity-fed micro-perfusion system with an approximate flow rate of 200 µL/min.\n(§2) Chinese hamster ovary (CHO) cells (generously provided by Yosef Yarden, Weizmann Institute of Science, Rehovot, Israel) or human embryonic kidney (HEK293) cells were cultured and maintained in Dulbecco’s modified Eagle medium (DMEM, Thermo Fisher Scientific, Waltham, MA, USA) supplemented with 2 mM L-glutamine, 10% fetal bovine serum (FBS), 100 µg/mL streptomycin, and 100 U/mL penicillin-g (Sigma-Aldrich, Budapest, Hungary) following standard culturing conditions [52]. For transient expression of ion channels, CHO cells were transfected using the Lipofectamine 2000 kit (Invitrogen, Waltham, MA, USA) following the manufacturer’s instructions with plasmids encoding specific ion channels, including hKv1.1 (KCNA1 gene), hKv1.2 (KCNA2 gene), and hKv1.5 (KCNA5 gene) in a pCMV6-AC-GFP vector (OriGene Technologies), hKCa2.2 (KCNN2 gene) in a pCDN3 plasmid (for this transfection a GFP containing plasmid was co-transfected, courtesy of Bernard Attali, Tel Aviv University, Tel Aviv, Israel), and hKCa3.1 (KCNN4 gene) in a pEGFP-C1 vector (a kind gift by H. Wulff, University of California, Davis, CA, USA). […] Electrophysiological recordings were typically conducted 24 to 48 h after transfection.\n(§3) Whole-cell currents were recorded using the patch-clamp technique in voltage-clamp mode, following standard protocols [73]. […] Micropipettes were made from GC150F-7.5 borosilicate capillaries (Harvard Apparatus Co., Holliston, MA, USA) using a Sutter P2000 laser puller with tip resistance generally ranging from 3–6 MΩ in the bath solution. Only recordings with a leak current at the holding potential (Vh) of <10% of the peak current at the test potential were included in the data analysis. All recordings were performed at room temperature (20–25 °C). Control and test solutions were perfused to the cells via a gravity-driven micro-perfusion system and AutoMate Perfusion Pencil Multi-Barrel Manifold Tip (AutoMate Scientific, Berkeley, CA, USA), with an approximate flow rate of 200 µL/min, and the excess amount of bath solution was continuously removed from the recording chamber using vacuum suction.\n(§4) The duration of depolarization pulses was 15 ms for Kv1.3 and 50 ms for Kv1.1 and Kv1.5. However, for Kv1.2, 15–500 ms-long pulses were used to achieve the saturated peak current due to the variable activation kinetics of this channel [74]."}, "hKv1.5": {"tested_on": "hKv1.5", "type": "cell-based, human", "settings": "100 nM; ~3 min", "description": "as §1\nChinese hamster ovary (CHO) cells (generously provided by Yosef Yarden, Weizmann Institute of Science, Rehovot, Israel) or human embryonic kidney (HEK293) cells were cultured and maintained in Dulbecco’s modified Eagle medium (DMEM, Thermo Fisher Scientific, Waltham, MA, USA) supplemented with 2 mM L-glutamine, 10% fetal bovine serum (FBS), 100 µg/mL streptomycin, and 100 U/mL penicillin-g (Sigma-Aldrich, Budapest, Hungary) following standard culturing conditions [52]. For transient expression of ion channels, CHO cells were transfected using the Lipofectamine 2000 kit (Invitrogen, Waltham, MA, USA) following the manufacturer’s instructions with plasmids encoding specific ion channels, including hKv1.1 (KCNA1 gene), hKv1.2 (KCNA2 gene), and hKv1.5 (KCNA5 gene) in a pCMV6-AC-GFP vector (OriGene Technologies), hKCa2.2 (KCNN2 gene) in a pCDN3 plasmid (for this transfection a GFP containing plasmid was co-transfected, courtesy of Bernard Attali, Tel Aviv University, Tel Aviv, Israel), and hKCa3.1 (KCNN4 gene) in a pEGFP-C1 vector (a kind gift by H. Wulff, University of California, Davis, CA, USA). […] Electrophysiological recordings were typically conducted 24 to 48 h after transfection. […]\nWhole-cell currents were recorded using the patch-clamp technique in voltage-clamp mode, following standard protocols [73]. […]"}, "hKCa3.1 (IKCa1, SK4)": {"biological_target": "T2, hKCa3.1 (IKCa1, SK4) (Homo sapiens, UniProt O15554)", "T2 construct": "expressed in transfected cells; host or cells: CHO cells, transient transfection (Lipofectamine 2000); plasmid a gift of H. Wulff", "T2 sequence (O15554 whole entry)": "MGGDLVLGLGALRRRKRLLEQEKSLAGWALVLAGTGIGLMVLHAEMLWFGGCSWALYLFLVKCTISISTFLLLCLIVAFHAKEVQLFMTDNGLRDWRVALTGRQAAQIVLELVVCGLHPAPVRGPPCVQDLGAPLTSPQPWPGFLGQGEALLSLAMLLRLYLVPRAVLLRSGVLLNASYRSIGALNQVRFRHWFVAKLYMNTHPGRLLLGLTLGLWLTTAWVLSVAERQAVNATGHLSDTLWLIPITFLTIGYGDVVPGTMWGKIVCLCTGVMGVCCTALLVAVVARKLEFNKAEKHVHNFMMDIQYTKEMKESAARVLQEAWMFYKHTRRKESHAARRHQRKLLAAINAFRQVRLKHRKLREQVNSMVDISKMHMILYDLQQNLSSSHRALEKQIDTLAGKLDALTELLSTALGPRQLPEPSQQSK", "experiment": "Whole-cell patch-clamp, hKCa3.1 current in transfected CHO cells", "type": "cell-based", "excerpt": "The scorpion toxins from the α-KTx 2 family also modulate the function of Ca^2+-activated potassium channels, in addition to Kv1 channels. Therefore, we investigated the activity of Cvill6 and Cvill7 toxins on three different types of Ca^2+-activated K^+ channels: (1) hKCa2.2 (SK2), the small-conductance Ca^2+-activated channel; (2) hKCa3.1 (IKCa1, SK4), the intermediate-conductance Ca^2+-activated channels, mainly expressed in T lymphocytes; and (3) mKCa1.1 (BK or MaxiK), the large-conductance voltage- and Ca^2+- activated channel of mice. Appropriate depolarization protocols were applied to record the K^+ current through respective KCa channels as shown in the inset of each panel in Figure 6A–C. […] Cvill6 reduced ~40% of the KCa3.1 current (Figure 6C), where the RCF value was 0.73 ± 0.05 (n = 5) at 100 nM (Figure 6D). On the other hand, Cvill7 inhibited ~25% of the current at the same concentration (Figure 6C), with an RCF value 0.84 ± 0.03 (n = 5) (Figure 6D). The time course of inhibition of KCa3.1 currents at 100 nM of Cvill6 or Cvill7 is shown in Figure 6E and Figure 6F, respectively. The normalized peak currents (see Section 2.4 or Section 5 for details) for individual cells (n = 5) were averaged at each time point and plotted as a function of time. […] The recovery from the block with Cvill6 to the initial peak current occurred in 4–5 consecutive traces (~0.8 min) and in the case of Cvill7 it took only 2–3 consecutive traces (~0.5 min) after perfusing the cell with toxin-lacking solution. […] The quantity of native toxins was insufficient to conduct the full dose–response curves at this high concentration range (see above).\nChinese hamster ovary (CHO) cells (generously provided by Yosef Yarden, Weizmann Institute of Science, Rehovot, Israel) or human embryonic kidney (HEK293) cells were cultured and maintained in Dulbecco’s modified Eagle medium (DMEM, Thermo Fisher Scientific, Waltham, MA, USA) supplemented with 2 mM L-glutamine, 10% fetal bovine serum (FBS), 100 µg/mL streptomycin, and 100 U/mL penicillin-g (Sigma-Aldrich, Budapest, Hungary) following standard culturing conditions. For transient expression of ion channels, CHO cells were transfected using the Lipofectamine 2000 kit (Invitrogen, Waltham, MA, USA) following the manufacturer’s instructions with plasmids encoding specific ion channels, including hKv1.1 (KCNA1 gene), hKv1.2 (KCNA2 gene), and hKv1.5 (KCNA5 gene) in a pCMV6-AC-GFP vector (OriGene Technologies), hKCa2.2 (KCNN2 gene) in a pCDN3 plasmid (for this transfection a GFP containing plasmid was co-transfected, courtesy of Bernard Attali, Tel Aviv University, Tel Aviv, Israel), and hKCa3.1 (KCNN4 gene) in a pEGFP-C1 vector (a kind gift by H. Wulff, University of California, Davis, CA, USA). Cells expressing GFP were identified using a Nikon TE 2000U fluorescence microscope (Nikon, Tokyo, Japan) with bandpass filters set to 455–495 nm for excitation and 515–555 nm for emission. Electrophysiological recordings were typically conducted 24 to 48 h after transfection.\nThe extracellular solution (bath solution) for both Kv and KCa channels consisted of 145 mM NaCl, 5 mM KCl, 2.5 mM CaCl2, 1 mM MgCl2, 10 mM HEPES, and 5.5 mM glucose, pH 7.35, and osmolarity between 302 and 308 mOsM/L. For positive control solutions containing various concentrations of tetraethylammoniums (TEA^+), Na^+ was substituted with TEA-Cl in equimolar concentration in the bath solution and all other ingredients remained unchanged. To avoid toxin adsorption onto the plastic surfaces of the perfusion system, 0.1 mg/mL of bovine serum albumin (BSA, Sigma-Aldrich, Budapest, Hungary) was also added into all bath solutions prior to the patch-clamp assay. […]"}, "hKv11.1 (hERG1)": {"tested_on": "hKv11.1 (hERG1)", "experiment": "Whole-cell patch-clamp, hKv11.1 current in stable HEK293 cells", "type": "cell-based, human", "settings": "100 nM; ~3 min", "protocol": "Appropriate voltage protocols were applied to record the K^+ currents from voltage-clamped cells in whole-cell configurations. Toxins were freshly dissolved in the bath solution supplemented with 0.1 mg/mL BSA and applied to the patched cells via a gravity-fed micro-perfusion system with an approximate flow rate of 200 µL/min.\nHEK 293 cells stably expressing mKCa1.1 1 (BKCa, Kcnma1 gene, generously provided by C. Beeton from Baylor College of Medicine, Houston, TX, USA) or hKv11.1 (hERG1, KCNH2 gene, gifted by H. Wulff from University of California, Davis, CA, USA) were utilized in this study.\nWhole-cell currents were recorded using the patch-clamp technique in voltage-clamp mode, following standard protocols [73]. […] Micropipettes were made from GC150F-7.5 borosilicate capillaries (Harvard Apparatus Co., Holliston, MA, USA) using a Sutter P2000 laser puller with tip resistance generally ranging from 3–6 MΩ in the bath solution. Only recordings with a leak current at the holding potential (Vh) of <10% of the peak current at the test potential were included in the data analysis. All recordings were performed at room temperature (20–25 °C). […]"}, "hKCa2.2 (SK2)": {"tested_on": "hKCa2.2 (SK2)", "experiment": "Whole-cell patch-clamp, hKCa2.2 current in transfected CHO cells", "type": "cell-based, human", "settings": "100 nM; ~3 min", "excerpt": "The scorpion toxins from the α-KTx 2 family also modulate the function of Ca^2+-activated potassium channels, in addition to Kv1 channels. Therefore, we investigated the activity of Cvill6 and Cvill7 toxins on three different types of Ca^2+-activated K^+ channels: (1) hKCa2.2 (SK2), the small-conductance Ca^2+-activated channel; (2) hKCa3.1 (IKCa1, SK4), the intermediate-conductance Ca^2+-activated channels, mainly expressed in T lymphocytes; and (3) mKCa1.1 (BK or MaxiK), the large-conductance voltage- and Ca^2+- activated channel of mice. […] The quantity of native toxins was insufficient to conduct the full dose–response curves at this high concentration range (see above).\nChinese hamster ovary (CHO) cells (generously provided by Yosef Yarden, Weizmann Institute of Science, Rehovot, Israel) or human embryonic kidney (HEK293) cells were cultured and maintained in Dulbecco’s modified Eagle medium (DMEM, Thermo Fisher Scientific, Waltham, MA, USA) supplemented with 2 mM L-glutamine, 10% fetal bovine serum (FBS), 100 µg/mL streptomycin, and 100 U/mL penicillin-g (Sigma-Aldrich, Budapest, Hungary) following standard culturing conditions. […] Cells expressing GFP were identified using a Nikon TE 2000U fluorescence microscope (Nikon, Tokyo, Japan) with bandpass filters set to 455–495 nm for excitation and 515–555 nm for emission. […]"}, "hKv1.1": {"biological_target": "T3, hKv1.1 (Homo sapiens, UniProt Q09470)", "T3 construct": "host or cells: CHO cells, transient transfection (Lipofectamine 2000)", "T3 sequence (Q09470 whole entry)": "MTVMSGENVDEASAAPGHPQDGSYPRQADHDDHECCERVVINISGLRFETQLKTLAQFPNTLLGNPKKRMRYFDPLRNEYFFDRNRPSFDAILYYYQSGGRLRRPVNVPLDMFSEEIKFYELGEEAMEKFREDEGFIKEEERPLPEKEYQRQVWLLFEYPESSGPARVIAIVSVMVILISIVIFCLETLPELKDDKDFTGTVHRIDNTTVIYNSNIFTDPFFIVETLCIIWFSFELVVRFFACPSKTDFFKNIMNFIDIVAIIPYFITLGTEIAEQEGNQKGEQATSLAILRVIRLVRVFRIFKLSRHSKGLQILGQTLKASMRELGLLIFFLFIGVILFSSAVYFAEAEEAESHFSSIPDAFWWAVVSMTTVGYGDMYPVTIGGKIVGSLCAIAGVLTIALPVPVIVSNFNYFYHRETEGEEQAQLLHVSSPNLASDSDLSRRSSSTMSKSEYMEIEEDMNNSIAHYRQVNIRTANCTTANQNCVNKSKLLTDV", "experiment": "cell-based", "type": "cell-based", "settings": "100 nM", "description": "as §1, §2, §3, §4"}},
  "note": "Read-outs that look alike come from different tables or passages of the source. Positions of bridges follow the written chain, without caps; N, C: chain ends. Residues, ends and D or L forms follow the SMILES beside them.",
  "data": [
    {"compound": "CC[C@H](C)[C@H](N)C(=O)N[C@@H](Cc1ccccc1)C(=O)N[C@H](C(=O)N[C@@H](CC(N)=O)C(=O)N[C@H](C(=O)N[C@@H](CCCCN)C(=O)N[C@H]1CSSC[C@@H]2NC(=O)[C@H](CCCCN)NC(=O)CNC(=O)CNC(=O)[C@H](C)NC(=O)[C@H](Cc3c[nH]cn3)NC(=O)[C@H](CCC(N)=O)NC(=O)CNC(=O)[C@H](Cc3ccccc3)NC(=O)[C@H](CCCNC(=N)N)NC(=O)[C@H](CC(=O)O)NC(=O)[C@H](CCCCN)NC(=O)[C@@H]3CSSC[C@@H](C(=O)N[C@@H](Cc4ccc(O)cc4)C(=O)N4CCC[C@H]4C(=O)O)NC(=O)[C@H](CCCCN)NC(=O)[C@H](CSSC[C@H](NC(=O)[C@H](CCC(N)=O)NC(=O)[C@H](CCC(N)=O)NC(=O)[C@@H]4CCCN4C(=O)[C@H](CC(C)C)NC(=O)[C@H](CC(=O)O)NC1=O)C(=O)N[C@@H](CC(C)C)C(=O)N[C@@H](CCCNC(=N)N)C(=O)N1CCC[C@H]1C(=O)N3)NC(=O)[C@H](CCCCN)NC(=O)CNC(=O)[C@H](CC(N)=O)NC(=O)[C@H]([C@@H](C)CC)NC2=O)C(C)C)[C@@H](C)CC", "note": "[Cvill6] (H-IFINVKCDLPQQCLRPCKDRFGQHAGGKCINGKCKCYP-OH; disulfide 7-29, 13-34, 17-36 (inferred); N-terminus and C-terminus assumed)", "values": [
      {"measurement": "IC50", "setting": "hKv1.2", "value": "3.9 ± 0.27", "unit": "nM"},
      {"measurement": "steady-state block of Kv1.2", "setting": "hKv1.2; 100 nM, n = 5", "value": "97 ± 1.2", "unit": "%"},
      {"measurement": "inhibition at 0.001 µM", "setting": "hKv1.2; CHO, representative record, read-out: inhibition of hKv1.2 current", "value": "~28", "unit": "%"},
      {"measurement": "inhibition at 0.001 µM", "setting": "hKv1.2; CHO, screening summary (Figure 3G), read-out: inhibition of hKv1.2 currents", "value": "~16", "unit": "%"},
      {"measurement": "koff", "setting": "hKv1.2; CHO, Kv1.2, calculated from τoff, 100 pM Cvill7 (n = 4) or 100 nM Cvill6 (n = 5)", "value": 0.00091, "unit": "s⁻¹"},
      {"measurement": "kon", "setting": "hKv1.2; CHO, Kv1.2, calculated from τon and τoff, 100 pM Cvill7 (n = 4) or 100 nM Cvill6 (n = 5)", "value": 290000, "unit": "M⁻¹ s⁻¹"},
      {"measurement": "times less potency for Kv1.2 than Cvill7", "setting": "hKv1.2; IC50 comparison", "value": 244, "unit": "times"},
      {"measurement": "selectivity for Kv1.2 over Kv1.3", "setting": "hKv1.2; IC50 ratio", "value": "~ 215 fold"},
      {"measurement": "τon (development of block)", "setting": "hKv1.2; Kv1.2, 100 nM, mean ± SEM, n = 5", "value": "35 ± 2.7", "unit": "s"},
      {"measurement": "τon, representative fit", "setting": "hKv1.2; Kv1.2, 100 nM, representative fit (Figure S5C)", "value": 38.7, "unit": "s"},
      {"measurement": "Hill coefficient (H)", "setting": "hKv1.2; Kv1.2, Hill equation fit of RCF values", "value": 1.4},
      {"measurement": "τoff (wash-out)", "setting": "hKv1.2; Kv1.2, after 100 nM, mean ± SEM, n = 5", "value": "1287 ± 259", "unit": "s"},
      {"measurement": "τoff, representative fit", "setting": "hKv1.2; Kv1.2, after 100 nM, representative fit (Figure S5C)", "value": 776.4, "unit": "s"},
      {"measurement": "Kd", "setting": "hKv1.2; Kv1.2, koff/kon ratio, 100 nM, read-out: dissociation constant (Kd), koff/kon", "value": 3.3, "unit": "nM"},
      {"measurement": "mode of block", "setting": "hKv1.2; inferred from Hill coefficients close to 1 and single-exponential kinetics", "value": "pore blockers that interact with channels with 1:1 stoichiometry in a bimolecular interaction"},
      {"measurement": "recovery of Kv1.2 current, up to % of initial current", "setting": "hKv1.2; toxin-free solution after 100 nM", "value": "up to 65%"},
      {"measurement": "reversibility of Kv1.2 block", "setting": "hKv1.2; wash-out with toxin-free solution", "value": "reversible but with very slow dissociation kinetics"},
      {"measurement": "effect on hKv1.5 current", "setting": "hKv1.5", "value": "no change in current amplitudes"},
      {"measurement": "reversibility of KCa3.1 inhibition", "setting": "hKCa3.1 (IKCa1, SK4); 100 nM, then toxin-free solution", "value": "inhibit the KCa3.1 channel reversibly with quick association and dissociation kinetics"},
      {"measurement": "time to steady-state block of KCa3.1", "setting": "hKCa3.1 (IKCa1, SK4); 100 nM, 5–6 consecutive traces, n = 5", "value": "~ 1 min"},
      {"measurement": "reduction of KCa3.1 current", "setting": "hKCa3.1 (IKCa1, SK4); 100 nM, representative record", "value": "~ 40%"},
      {"measurement": "inhibition at 0.1 µM", "setting": "hKCa3.1 (IKCa1, SK4); CHO, 100 nM, read-out: inhibition of KCa3.1 current", "value": "~27", "unit": "%"},
      {"measurement": "potency estimated from few doses", "setting": "hKCa3.1 (IKCa1, SK4); CHO, KCa3.1, estimated from a single concentration (100 nM), bimolecular 1:1 interaction, read-out: estimated IC50", "value": "~268", "unit": "nM"},
      {"measurement": "remaining current fraction (RCF, I/I0)", "setting": "hKCa3.1 (IKCa1, SK4); KCa3.1, 100 nM, mean ± SEM, n = 5", "value": "0.73 ± 0.05"},
      {"measurement": "affinity for KCa3.1 relative to Cvill7", "setting": "hKCa3.1 (IKCa1, SK4); estimated IC50 comparison", "value": "two-fold higher affinity"},
      {"measurement": "time to recovery from KCa3.1 block", "setting": "hKCa3.1 (IKCa1, SK4); toxin-lacking solution after 100 nM, n = 5", "value": "~ 0.8 min"},
      {"measurement": "effect on hKv11.1 (hERG1) current", "setting": "hKv11.1 (hERG1)", "value": "no change in current amplitudes"},
      {"measurement": "effect on KCa2.2 current", "setting": "hKCa2.2 (SK2)", "value": "Neither Cvill6 nor Cvill7 showed any effect"},
      {"measurement": "effect on hKv1.1 current", "setting": "hKv1.1", "value": "no change in current amplitudes"}
    ]}
  ]
}
